Experimental data as given in ChEMBL document CHEMBL5247664, “Structure-activity relationship of BMS906024 derivatives for Cryptosporidium parvum growth inhibition” (Bioorg Med Chem Lett, 2023).
pEC50: −log10 of the molar value.

How the values were obtained:
Type in all cases: functional, organism-based
Cryptosporidium parvum [1] = experiment: Antiparasitic activity against Cryptosporidium parvum infected in human HCT-8 cells assessed as parasitic growth inhibition measured for 48 hrs by fluorescence based microscopic analysis; settings: for pEC50: HCT-8, 48 h; for EC90: HCT-8, time 48 hrs
Cryptosporidium parvum [2] = experiment: Antiparasitic activity against Cryptosporidium parvum assessed as parasitic growth inhibition
Cryptosporidium parvum [3] = experiment: Antiparasitic activity against Cryptosporidium parvum assessed as parasitic growth inhibition measured for 24 hrs
Cryptosporidium parvum [4] = experiment: Antiparasitic activity against Cryptosporidium parvum infected in human HCT-8 cells assessed as parasitic growth inhibition incubated for 45 mins followed by compound washout further infected in cells and measured after 48 hrs by microscopic analysis

| Compound | pEC50 (Cryptosporidium parvum [1]) | EC90 (Cryptosporidium parvum [1]) | pEC50 (Cryptosporidium parvum [2]) | pEC50 (Cryptosporidium parvum [3]) | pEC50 (Cryptosporidium parvum [4]) |
| --- | --- | --- | --- | --- | --- |
| CCC[C@H](CC(=O)N1CCCC1)C(=O)N[C@H]1N=C(c2ccccc2)c2ccccc2N(C)C1=O | 6.96 | 0.23 µM | – | – | – |
| CN1C(=O)[C@@H](NC(=O)[C@H](CCC(F)(F)F)CC(=O)N2CCOCC2)N=C(c2ccccc2)c2ccccc21 | 7.28 | 0.1 µM | – | – | – |
| CN1C(=O)[C@@H](NC(=O)[C@H](CCC(F)(F)F)CC(=O)N2CCCCC2)N=C(c2ccccc2)c2ccccc21 | 8.19 | 0.016 µM | – | – | – |
| CCCNC(=O)CCC(=O)N[C@H]1N=C(c2ccccc2)c2ccccc2N(C)C1=O | < 4.60 | > 25 µM | – | – | – |
| CCCNC(=O)C(C)(C)CC(=O)N[C@H]1N=C(c2ccccc2)c2ccccc2N(C)C1=O | < 4.60 | > 25 µM | – | – | – |
| CCCNC(=O)C[C@@H](CCC(F)(F)F)C(=O)N[C@H]1N=C(c2ccccc2)c2ccc(OC3COC3)cc2N(C)C1=O | 6.46 | 0.97 µM | – | – | – |
| CCCNC(=O)C[C@@H](CCC(F)(F)F)C(=O)N[C@H]1N=C(c2ccccc2)c2ccc(OC)cc2N(C)C1=O | 7.09 | 0.15 µM | – | – | – |
| CN1C(=O)[C@@H](NC(=O)[C@H](CCC(F)(F)F)CC(=O)N2CCCCC2)N=C(c2ccccc2)c2ccc(Oc3ccccc3)cc21 | 7.60 | 0.055 µM | – | – | – |
| CCCNC(=O)C[C@H](CCC(F)(F)F)C(=O)N[C@H]1N=C(c2ccccc2)c2ccccc2N(C)C1=O | < 4.60 | > 25 µM | – | – | – |
| CCCNC(=O)C[C@@H](CCC(F)(F)F)C(=O)N[C@H]1N=C(c2ccccc2)c2ccccc2N(C)C1=O | 7.74 | 0.056 µM | – | – | – |
| CN1C(=O)[C@H](NC(=O)[C@H](CCC(F)(F)F)CC(=O)N2CCCCC2)N=C(c2ccccc2)c2ccc(OC3CCC3)cc21 | 5.60 | 11.1 µM | – | – | – |
| CN1C(=O)[C@@H](NC(=O)[C@H](CCC(F)(F)F)[C@H](CCC(F)(F)F)C(N)=O)N=C(c2ccccc2)c2ccccc21 [OSUGACESTAT] | 8.74 | 0.0023 µM | 8.74 | – | – |
| CN1C(=O)[C@H](NC(=O)[C@H](CCC(F)(F)F)CC(=O)N2CCCCC2)N=C(c2ccccc2)c2ccc(OC3COC3)cc21 | 5.64 | 4.9 µM | – | – | – |
| CCCNC(=O)C[C@@H](CCC(F)(F)F)C(=O)N[C@@H]1N=C(c2ccccc2)c2ccc(OC3COC3)cc2N(C)C1=O | < 4.60 | > 25 µM | – | – | – |
| CN1C(=O)[C@H](NC(=O)[C@H](CCC(F)(F)F)CC(=O)N2CCCCC2)N=C(c2ccccc2)c2cc(Cl)c(OC3COC3)cc21 | 5.26 | 12.8 µM | – | – | – |
| CN1C(=O)[C@@H](NC(=O)C[C@H](CCC(F)(F)F)C(N)=O)N=C(c2ccccc2)c2ccccc21 | 4.60 | > 25 µM | – | – | – |
| CCCNC(=O)[C@@H](CCC(F)(F)F)CC(=O)N[C@H]1N=C(c2ccccc2)c2ccccc2N(C)C1=O | < 4.60 | > 25 µM | – | – | – |
| CCNC(=O)C[C@@H](CCC(F)(F)F)C(=O)N[C@H]1N=C(c2ccccc2)c2ccccc2N(C)C1=O | 6.55 | 0.61 µM | – | – | – |
| CCCN(CCC)C(=O)C[C@@H](CCC(F)(F)F)C(=O)N[C@H]1N=C(c2ccccc2)c2ccccc2N(C)C1=O | 5.84 | 2.79 µM | – | – | – |
| CN1C(=O)[C@@H](NC(=O)[C@H](CCC(F)(F)F)CC(=O)N2CCCCC2)N=C(c2ccccc2)c2ccc(OC3CCC3)cc21 | 7.11 | 0.16 µM | – | – | – |
| C[C@H](NC(=O)Cc1cc(F)cc(F)c1)C(=O)N[C@H](C(=O)OC(C)(C)C)c1ccccc1 | – | – | – | 4.90 | – |
| CN1C(=O)[C@@H](NC(=O)[C@H](CCC(F)(F)F)CC(=O)N2CCCCC2)N=C(c2ccccc2)c2cc(Cl)c(OC3COC3)cc21 | 6.49 | 0.96 µM | – | – | – |
| CN1C(=O)[C@H](NC(=O)[C@H](CCC(F)(F)F)CC(=O)N2CCCCC2)N=C(c2ccccc2)c2ccc(Oc3ccccc3)cc21 | 5.77 | 3.61 µM | – | – | – |
| CN1C(=O)[C@@H](NC(=O)[C@H](CCC(F)(F)F)CC(=O)OC(C)(C)C)N=C(c2ccccc2)c2ccccc21 | 6.26 | 1.12 µM | – | – | – |
| CCCNC(=O)CC(C)(C)C(=O)N[C@H]1N=C(c2ccccc2)c2ccccc2N(C)C1=O | < 4.60 | > 25 µM | – | – | – |
| COc1ccc2c(c1)N(C)C(=O)[C@@H](NC(=O)[C@H](CCC(F)(F)F)CC(=O)N1CCCCC1)N=C2c1ccccc1 | 7.51 | 0.066 µM | – | – | – |
| CC(C)[C@H](O)C(=O)N[C@@H](C)C(=O)N[C@@H]1C(=O)N(C)CCc2ccccc21 [SEMAGACESTAT] | – | – | – | 5.38 | – |
| CCN(CC)C(=O)C[C@@H](CCC(F)(F)F)C(=O)N[C@H]1N=C(c2ccccc2)c2ccccc2N(C)C1=O | 6.96 | 0.31 µM | – | – | 6.30 |
| CN1C(=O)[C@@H](NC(=O)[C@H](CCC(F)(F)F)CC(N)=O)N=C(c2ccccc2)c2ccccc21 | < 4.60 | > 25 µM | – | – | – |
| CN1C(=O)[C@@H](NC(=O)[C@H](CCC(F)(F)F)CC(=O)N2CCCCC2)N=C(c2ccccc2)c2ccc(OC3COC3)cc21 | 6.96 | 0.21 µM | – | – | – |
